The text below walks through data of patent US12473296B2, “Perk inhibiting compounds” (HiberCell, Inc., priority 2019, dated 2025).

Experiment [1] concerns the target EIF2AK3 (PERK) catalytic domain (amino acids 536-1116) (Homo sapiens (Human), UniProt Q9NZJ5). Nature of the experiment: PERK in vitro activity assay (isolated), TR-FRET kinase assay. As to conditions: isolated PERK enzyme, 1.5 μM ATP, GFP-eIF2a substrate; read-out: Biochemical IC50. The text has this: PERK In Vitro Activity Assay (Isolated):
In vitro Inhibition of PERK Enzyme Activity (isolated) Recombinant human EIF2AK2 (PKR) catalytic domain (amino acids 252-551), EIF2AK3 (PERK) catalytic domain (amino acids 536-1116), GFP-eIF2a substrate, and Terbium-labelled phospho-eIF2a antibody is obtained (Invitrogen, Carlsbad, CA).
Express and purify HIS-SUMO-GCN2 catalytic domain (amino acids 584-1019) from E. coli. Perform TR-FRET kinase assays in the absence or presence of inhibitors in a reaction buffer consisting of 50 mM HEPES, pH 7.5, 10 mM MgCb, 1.0 mM EGTA, and 0.01% Brij-35, and 100-200 nM GFP-eIF2a substrate. […] Add test compound, initiate the reaction by addition of enzyme, and incubate at room temperature for 45 minutes. Stop the reaction by addition of EDTA to a final concentration of 10 mM, add Terbium-labelled phospho-eIF2a antibody at a final concentration of 2 nM, and incubate for 90 minutes. Monitor the resulting fluorescence in an EnVison® Multilabel reader (PerkinElmer, Waltham, MA). Determine TR-FRET ratios and the resulting IC50 values using a 4-parameter nonlinear logistic equation as shown: Y=(A+((B−A)/(1+((C/x)[…])))) where, Y=% specific inhibition, A=Bottom of the curve, B=Top of the curve, C=absolute IC50 (concentration causing 50% inhibition), and D=hill slope.

The next experiment has as its target PERK (Homo sapiens (Human), UniProt Q9NZJ5). The experiment in a line: PERK cellular assay (TR-FRET, HEK293-EGFP-eIF2α cells, tunicamycin-induced ER stress). Type of experiment: cell-based. The following applies: tunicamycin 2 hours, read-out: Cellular IC50 (μM) (EIF2a). In outline: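 After 2 h tunicamycin ([…]) stress following 30 min compound pretreatment at 37 °C, lysed HEK293-EGFP-eIF2α cells were read by TR-FRET. IC50 derived by 4-parameter logistic fitting of percent inhibition, DMSO-normalized, from 10-point 3-fold dilutions.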

Some results are limits rather than exact numbers.

EIF2AK3 (PERK) catalytic domain (amino acids 536-1116), sequence (Q9NZJ5 536-1116): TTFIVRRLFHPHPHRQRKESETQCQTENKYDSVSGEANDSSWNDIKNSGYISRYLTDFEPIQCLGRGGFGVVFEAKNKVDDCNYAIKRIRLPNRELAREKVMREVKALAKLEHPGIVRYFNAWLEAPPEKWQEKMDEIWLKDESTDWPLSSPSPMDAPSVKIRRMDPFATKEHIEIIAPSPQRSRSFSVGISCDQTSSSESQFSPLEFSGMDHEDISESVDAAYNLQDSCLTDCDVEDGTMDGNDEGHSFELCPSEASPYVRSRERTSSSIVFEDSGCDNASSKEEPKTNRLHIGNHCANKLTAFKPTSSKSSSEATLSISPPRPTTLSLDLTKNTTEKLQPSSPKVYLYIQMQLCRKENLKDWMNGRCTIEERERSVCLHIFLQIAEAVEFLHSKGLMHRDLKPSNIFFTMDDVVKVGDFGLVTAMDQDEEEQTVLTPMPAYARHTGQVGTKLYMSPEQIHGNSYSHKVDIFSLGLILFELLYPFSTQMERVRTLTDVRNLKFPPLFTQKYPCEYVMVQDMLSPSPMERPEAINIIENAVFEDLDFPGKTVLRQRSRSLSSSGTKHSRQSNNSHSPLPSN
PERK, sequence (Q9NZJ5 30-1116): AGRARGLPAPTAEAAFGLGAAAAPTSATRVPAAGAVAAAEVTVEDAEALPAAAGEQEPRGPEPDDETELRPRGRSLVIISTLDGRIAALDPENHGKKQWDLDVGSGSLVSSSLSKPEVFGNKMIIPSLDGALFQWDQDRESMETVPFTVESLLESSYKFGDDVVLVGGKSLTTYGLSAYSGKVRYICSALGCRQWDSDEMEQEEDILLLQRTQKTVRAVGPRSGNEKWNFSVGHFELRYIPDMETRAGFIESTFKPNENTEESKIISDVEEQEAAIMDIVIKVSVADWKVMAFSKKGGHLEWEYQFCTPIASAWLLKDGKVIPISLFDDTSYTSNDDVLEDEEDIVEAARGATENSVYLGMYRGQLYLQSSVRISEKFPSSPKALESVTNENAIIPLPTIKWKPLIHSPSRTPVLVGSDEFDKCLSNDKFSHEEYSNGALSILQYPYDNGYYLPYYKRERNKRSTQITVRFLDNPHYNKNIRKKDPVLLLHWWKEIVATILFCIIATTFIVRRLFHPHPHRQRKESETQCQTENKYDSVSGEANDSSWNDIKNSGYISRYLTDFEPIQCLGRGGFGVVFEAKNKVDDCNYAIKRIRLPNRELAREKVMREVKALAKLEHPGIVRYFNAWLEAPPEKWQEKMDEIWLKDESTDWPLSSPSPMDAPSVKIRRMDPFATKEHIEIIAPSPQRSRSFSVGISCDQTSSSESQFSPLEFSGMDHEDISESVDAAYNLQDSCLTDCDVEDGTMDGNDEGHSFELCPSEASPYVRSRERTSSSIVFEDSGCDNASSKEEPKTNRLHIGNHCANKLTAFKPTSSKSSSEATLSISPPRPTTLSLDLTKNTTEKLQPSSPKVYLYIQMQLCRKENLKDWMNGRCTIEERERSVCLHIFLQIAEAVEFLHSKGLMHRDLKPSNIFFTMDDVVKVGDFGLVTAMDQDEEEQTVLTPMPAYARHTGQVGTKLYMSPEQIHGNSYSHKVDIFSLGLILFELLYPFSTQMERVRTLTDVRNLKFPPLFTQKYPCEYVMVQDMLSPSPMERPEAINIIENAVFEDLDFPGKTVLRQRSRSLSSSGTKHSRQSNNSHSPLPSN

With `COC1CC(NC(=O)c2cc(-c3ccc(NC(=O)C(O)c4cc(F)cc(F)c4)cc3C)cnc2N)C1` (stereo not shown) [Example 28, 2-amino-5-(4-(2-(3,5-difluorophenyl)-2-hydroxyacetamido)-2-methylphenyl)-N-(3-methoxycyclobutyl) nicotinamide], the half-maximal inhibitory concentration (IC50) in experiment [1] lay in the range of 1 to 25 nM; on PERK, 0.026 to 0.05 µM.
Turning to `COC1CC(NC(=O)c2cc(-c3ccc(NC(=O)C(O)c4cc(F)cc(F)c4)cc3C)cnc2N)C1` (stereo not shown) [Example 29, 2-amino-5-(4-(2-(3,5-difluorophenyl)-2-hydroxyacetamido)-2-methylphenyl)-N-(3-methoxycyclobutyl) nicotinamide], the IC50 in experiment [1] was 26 to 50 nM; on PERK, 0.251 to 0.5 µM.
For `CC(=O)N1CC(NC(=O)c2cc(-c3ccc(NC(=O)C(O)c4cc(F)cc(F)c4)cc3C)cnc2N)C1` (stereo not shown) [Example 30, N-(1-acetylazetidin-3-yl)-2-amino-5-(4-(2-(3,5-difluorophenyl)-2-hydroxyacetamido)-2-methylphenyl) nicotinamide], the values for the IC50 (in experiment [1]; at PERK) were 1 to 25 nM and 0.501 to 1 µM, respectively.
In the same order, the values of `CC(=O)N1CC(NC(=O)c2cc(-c3ccc(NC(=O)C(O)c4cc(F)cc(F)c4)cc3C)cnc2N)C1` (stereo not shown) [Example 31, N-(1-acetylazetidin-3-yl)-2-amino-5-(4-(2-(3,5-difluorophenyl)-2-hydroxyacetamido)-2-methylphenyl) nicotinamide] are 51 to 100 nM and 3 to 4 µM.
Regarding `CC(C)NC(=O)c1cc(-c2ccc(NC(=O)C(O)c3cc(F)cc(F)c3)cc2F)cnc1N` (stereo not shown) [Example 32, 2-amino-5-(4-(2-(3,5-difluorophenyl)-2-hydroxyacetamido)-2-fluorophenyl)-N-isopropylnicotinamide], the IC50 in experiment [1] is 1 to 25 nM; on PERK, 0.051 to 0.1 µM.
As to `CC(C)NC(=O)c1cc(-c2ccc(NC(=O)C(O)c3cc(F)cc(F)c3)cc2F)cnc1N` (stereo not shown) [Example 33, 2-amino-5-(4-(2-(3,5-difluorophenyl)-2-hydroxyacetamido)-2-fluorophenyl)-N-isopropylnicotinamide], the IC50 lay within 101 to 250 nM in experiment [1] and 0.251 to 0.5 µM at PERK.
With `CC(C)NC(=O)c1cc(-c2ccc(NC(=O)C(O)c3cc(F)cc(F)c3)cc2C(F)(F)F)cnc1N` (stereo not shown) [Example 36, 2-amino-5-(4-(2-(3,5-difluorophenyl)-2-hydroxyacetamido)-2-(trifluoromethyl)phenyl)-N-isopropylnicotinamide], the concentration for half-maximal inhibition (IC50) in experiment [1] was in the range of 1 to 25 nM; on PERK, 0.051 to 0.1 µM.
As to `CC(C)NC(=O)c1cc(-c2ccc(NC(=O)C(O)c3cc(F)cc(F)c3)cc2C(F)(F)F)cnc1N` (stereo not shown) [Example 37, 2-amino-5-(4-(2-(3,5-difluorophenyl)-2-hydroxyacetamido)-2-(trifluoromethyl)phenyl)-N-isopropylnicotinamide], the IC50 is 101 to 250 nM in experiment [1] and 0.251 to 0.5 µM at PERK.
In the case of `Cc1cc(NC(=O)C(O)c2cc(F)cc(F)c2)ccc1-c1cnc(N)c(C(=O)NC(C)C)c1` (stereo not shown) [Example 40, 2-amino-5-(4-(2-(3,5-difluorophenyl)-2-hydroxyacetamido)-2-methylphenyl)-N-isopropylnicotinamide], the IC50 in experiment [1] is 1 to 25 nM; at PERK, 0.026 to 0.05 µM.
`Cc1cc(NC(=O)C(O)c2cc(F)cc(F)c2)ccc1-c1cnc(N)c(C(=O)O)c1` (stereo not shown) [Example 41, 2-amino-5-(4-(2-(3,5-difluorophenyl)-2-hydroxyacetamido)-2-methylphenyl) nicotinic acid]: the half-inhibitory concentration (IC50) is 101 to 250 nM in experiment [1] and > 5 µM on PERK.
In the case of `Cc1cc(NC(=O)C(O)c2cc(F)cc(F)c2)ccc1-c1cnc(N)c(C(=O)NC2CNC2)c1` (stereo not shown) [Example 44, 2-amino-N-(azetidin-3-yl)-5-(4-(2-(3,5-difluorophenyl)-2-hydroxyacetamido)-2-methylphenyl) nicotinamide], the figures for the IC50 (in experiment [1]; at PERK) were 1 to 25 nM and 3 to 4 µM, respectively.
For `Cc1cc(NC(=O)C(O)c2cc(F)cc(F)c2)ccc1-c1cnc(N)c(C(=O)NC2CNC2)c1` (stereo not shown) [Example 45, 2-amino-N-(azetidin-3-yl)-5-(4-(2-(3,5-difluorophenyl)-2-hydroxyacetamido)-2-methylphenyl) nicotinamide], in that order: 51 to 100 nM and > 5 µM.
`Cc1cc(NC(=O)C(O)c2cc(F)cc(F)c2)ccc1-c1cnc(N)c(C(=O)NC2CN(C)C2)c1` (stereo not shown) [Example 46, 2-amino-5-(4-(2-(3,5-difluorophenyl)-2-hydroxyacetamido)-2-methylphenyl)-N-(1-methylazetidin-3-yl)nicotinamide]: the IC50 in experiment [1] was 1 to 25 nM; on PERK, 0.501 to 1 µM.
Regarding `Cc1cc(NC(=O)C(O)c2cc(F)cc(F)c2)ccc1-c1cnc(N)c(C(=O)NC2CN(C)C2)c1` (stereo not shown) [Example 47, 2-amino-5-(4-(2-(3,5-difluorophenyl)-2-hydroxyacetamido)-2-methylphenyl)-N-(1-methylazetidin-3-yl)nicotinamide], the IC50 is 1 to 25 nM in experiment [1] and 1 to 2 µM at PERK.
Turning to `Cc1cc(NC(=O)C(O)c2cc(F)cc(F)c2)ccc1-c1cnc(N)c(C(=O)NCCO)c1` (stereo not shown) [Example 56, 2-amino-5-(4-(2-(3,5-difluorophenyl)-2-hydroxyacetamido)-2-methylphenyl)-N-(2-hydroxyethyl) nicotinamide], the IC50 in experiment [1] lay within 1 to 25 nM; at PERK, 0.251 to 0.5 µM.
`Cc1cc(NC(=O)C(O)c2cc(F)cc(F)c2)ccc1-c1cnc(N)c(C(=O)NCCO)c1` (stereo not shown) [Example 57, 2-amino-5-(4-(2-(3,5-difluorophenyl)-2-hydroxyacetamido)-2-methylphenyl)-N-(2-hydroxyethyl) nicotinamide]: the concentration for half-maximal inhibition (IC50) in experiment [1] lay in the range of 101 to 250 nM; at PERK, 2 to 3 µM.
Consider `Cc1cccc(C(O)C(=O)Nc2ccc(-c3cnc(N)c(C(=O)NC(C)C)c3)c(C)c2)c1` (stereo not shown) [Example 66, 2-amino-5-(4-(2-hydroxy-2-(m-tolyl)acetamido)-2-methylphenyl)-N-isopropylnicotinamide], for which the IC50 in experiment [1] fell in the range of 101 to 250 nM; on PERK it was 1 to 2 µM.
For the compound `Cc1cccc(C(O)C(=O)Nc2ccc(-c3cnc(N)c(C(=O)NC(C)C)c3)c(C)c2)c1` (stereo not shown) [Example 67, 2-amino-5-(4-(2-hydroxy-2-(m-tolyl)acetamido)-2-methylphenyl)-N-isopropylnicotinamide], the IC50 was 1 to 25 nM in experiment [1] and 0.051 to 0.1 µM on PERK.
For `Cc1cc(NC(=O)C(O)c2cccc(Cl)c2)ccc1-c1cnc(N)c(C(=O)NC(C)C)c1` (stereo not shown) [Example 68, 2-amino-5-(4-(2-(3-chlorophenyl)-2-hydroxyacetamido)-2-methylphenyl)-N-isopropylnicotinamide], in that order: 101 to 250 nM and 0.501 to 1 µM.
In the case of `Cc1cc(NC(=O)C(O)c2cccc(Cl)c2)ccc1-c1cnc(N)c(C(=O)NC(C)C)c1` (stereo not shown) [Example 69, 2-amino-5-(4-(2-(3-chlorophenyl)-2-hydroxyacetamido)-2-methylphenyl)-N-isopropylnicotinamide], the values for the IC50 (in experiment [1]; at PERK) were 1 to 25 nM and 0.026 to 0.05 µM, respectively.
Regarding `Cc1cc(NC(=O)C(O)c2cccc3c2OCC3)ccc1-c1cnc(N)c(C(=O)NC(C)C)c1` (stereo not shown) [Example 74, 2-amino-5-(4-(2-(2,3-dihydrobenzofuran-7-yl)-2-hydroxyacetamido)-2-methylphenyl)-N-isopropylnicotinamide], the 50% inhibitory concentration (IC50) in experiment [1] was in the range of 251 to 500 nM; at PERK, 1 to 2 µM.
For the compound `Cc1cc(NC(=O)C(O)c2cccc3c2OCC3)ccc1-c1cnc(N)c(C(=O)NC(C)C)c1` (stereo not shown) [Example 75, 2-amino-5-(4-(2-(2,3-dihydrobenzofuran-7-yl)-2-hydroxyacetamido)-2-methylphenyl)-N-isopropylnicotinamide], the figures for the IC50 (in experiment [1]; on PERK) were 101 to 250 nM and 1 to 2 µM, respectively.
As to `Cc1cc(NC(=O)C(O)c2cccc3cnn(C)c23)ccc1-c1cnc(N)c(C(=O)NC(C)C)c1` (stereo not shown) [Example 76, 2-amino-5-(4-(2-hydroxy-2-(1-methyl-1H-indazol-7-yl)acetamido)-2-methylphenyl)-N-isopropylnicotinamide], the IC50 fell in the range of 251 to 500 nM in experiment [1] and 3 to 4 µM on PERK.
Turning to `Cc1cc(NC(=O)C(O)c2cccc3cnn(C)c23)ccc1-c1cnc(N)c(C(=O)NC(C)C)c1` (stereo not shown) [Example 77, 2-amino-5-(4-(2-hydroxy-2-(1-methyl-1H-indazol-7-yl)acetamido)-2-methylphenyl)-N-isopropylnicotinamide], the values for the IC50 (in experiment [1]; at PERK) were 501 to 1000 nM and 3 to 4 µM, respectively.
With `Cc1nc(C(O)C(=O)Nc2ccc(-c3cnc(N)c(C(=O)NC(C)C)c3)c(C)c2)cs1` (stereo not shown) [Example 78, 2-amino-5-(4-(2-hydroxy-2-(2-methylthiazol-4-yl)acetamido)-2-methylphenyl)-N-isopropylnicotinamide], the IC50 in experiment [1] is 1000 to 2000 nM; at PERK, > 5 µM.
As to `Cc1nc(C(O)C(=O)Nc2ccc(-c3cnc(N)c(C(=O)NC(C)C)c3)c(C)c2)cs1` (stereo not shown) [Example 79, 2-amino-5-(4-(2-hydroxy-2-(2-methylthiazol-4-yl)acetamido)-2-methylphenyl)-N-isopropylnicotinamide], the IC50 in experiment [1] was 1000 to 2000 nM; at PERK, > 5 µM.

By IC50 is commonly meant the concentration that gives 50% inhibition.
